Test results reported in patent publication US20250213707A1, “COMPOUND FOR INCREASING EFFICACY OF ONCOLYTIC VIRUSES” (ABLEVIA BIOTECH GMBH, priority 2022, published 2025).

How the values were obtained:
mAb ADK8 = test: Epitope mapping of mAb ADK8 against AAV peptides; format: binding, mice
From the text: Monoclonal antibody ADK8 was generated by immunizing mice with AAV8 capsids. It is directed against the assembled AAV8 capsid (Sonntag et al, 2011). […] Moreover, the binding of AAV8 to the nuclear membrane as well as the nuclear entry were abrogated following neutralization by ADK8. […] ADK8 also cross-reacts with capsid proteins from other AAV serotypes such as AAV1, AAV3, AAV7 (Mietzsch et al, 2014) and was therefore chosen as an example from which general conclusions about the present invention can be drawn.
As for the other antibodies (see examples above), several clusters were identified, delineating regions from which preferred peptides can be deduced. Most preferably, the peptides aligned below according to their binding strengths can be used for selective antibody depletion and detection as hereinabove.

mAb 9C12 = test: Epitope mapping of monoclonal antibody 9C12 against cyclic peptides of the AdV hexon protein (peptide microarray); format: binding, mice; details: cyclic 7mer, 10mer, 13mer peptides of AdV hexon
Experimental: Monoclonal antibody 9C12 (alias mAB TC31-9C12·C9-s) was generated by immunizing mice with the hexon protein (Uniprot ID: P04133 which corresponds to GenBank: BAG48782.1). […] In brief, diluted antibody was incubated with GFP-expressing replication-defective Ad vector and subsequently added to Hela cells followed by fluorescence readout. […] The binding signal of mAb 9C12 to the peptides yielded several candidates that could be aligned and clustered against the protein. An epitopic cluster region of 20 amino acids was identified from which paratope binding peptides can be preferentially derived. Below are the aligments of the corresponding peptide hits from this screen. […] Cyclic peptides were selected out of up to 50 top binders in this experiment.

[1] = system: IgG from human donors (anti-AAV antibodies); test: Screen for anti-AAV antibodies in human sera, 2452 linear 15-amino-acid AAV peptides on microarrays (Table 1); format: binding; set-up: key to group I: X: the deduplicated aggregate of the respective top 10 peptide hits for each donor was compiled and designated as group I; key to group II: X: the deduplicated aggregate of the respective top 25 peptide hits for each donor was compiled and designated as group II; key to group III: X: the deduplicated aggregate of the respective top 50 peptide hits for each donor was compiled and designated as group III; details: human donor IgG binding to linear 15-amino-acid AAV peptides on microarray, fluorescence; for group I: membership in deduplicated aggregate of top 10 peptide hits for each donor; for group II: membership in deduplicated aggregate of top 25 peptide hits for each donor; for group III: membership in deduplicated aggregate of top 50 peptide hits for each donor
Procedure, shortened: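 Protein G-purified IgG from human donor blood incubated with microarrays of 2452 linear 15-mer peptides from 16 AAVs; binding read by fluorescence. Background-subtracted signals ranked per donor, with top 10, 25, 50 and 250 hits pooled and deduplicated into groups I-IV.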

[2] = system: IgG from human donors (anti-AAV antibodies); test: Screen for anti-AAV antibodies in human sera based on cyclic 14-amino-acid AAV peptides on microarrays (Table 2); format: binding; set-up: key: X: the deduplicated aggregate of the respective top 50 peptide hits for each donor was compiled and designated as group I; details: human donor IgG; circularized AAV peptides; top 50 peptide hits for each donor
Experimental: More than 1200 cyclic peptides derived from the sequences of human and rhesus monkey AAV sequences and artificial AAV sequences according to Table 2 and with a sequence length of 14 amino-acids each were synthesized.
Samples obtained from human donors were screened for antibodies against these AAV-derived peptides immobilized on microarrays. To this end, IgG was prepared from blood obtained from the human donors by protein G purification. Each IgG sample was incubated with the peptide microarrays and Ig binding signals were detected by fluorescence. All antibody binding signals to the peptides on the arrays were background subtracted and ranked for each sample and a deduplicated aggregate of the respective top 250 peptide hits for each donor with the corresponding protein sequence of origin (as obtained from UniProt or other sources) was compiled (designated as group II). Further, the deduplicated aggregate of the respective top 50 peptide hits for each donor was compiled and designated as group I.
Altogether, group I contains 47 distinct peptide hits (assigned to the corresponding AAV vectors in Table 2) and group II yielded 172 distinct peptide hits. Evidently, group I is a subset of group II.

351 (IDQYLYY) [compound 351]
peptide number according to binding strength (mAb ADK8): 36

336 (GCLPPFP) [compound 336]
peptide number according to binding strength (mAb ADK8): 13

346 (AVGRSSFYCL) [compound 346]
peptide number according to binding strength (mAb ADK8): 24

328 (YFGYSTPWGY) [compound 328]
peptide number according to binding strength (mAb ADK8): 28

TIANNLTSTIQVFT (REGION 1..14: note = peptide derived from viral capsid protein) [SEQ ID NO: 1968]
ranked binding signal obtained from the microarray (01 binds strongest) (mAb 9C12): 01
group I [1]: X
group II [1]: X
group III [1]: X

342 (VLGSAHQGCL) [compound 342]
peptide number according to binding strength (mAb ADK8): 45

318 (RDVYLQG) [compound 318]
peptide number according to binding strength (mAb ADK8): 20

313 (VYLQGPI) [compound 313]
peptide number according to binding strength (mAb ADK8): 02

329 (FGYSTPWGYFDFN) [compound 329]
peptide number according to binding strength (mAb ADK8): 34

WLEDNLSEGIREWW (REGION 1..14: note = peptide derived from viral capsid protein) [SEQ ID NO: 1971]
ranked binding signal obtained from the microarray (01 binds strongest) (mAb 9C12): 04
group I [1]: X
group II [1]: X
group III [1]: X

KKRPVDQSPQEPDS (REGION 1..14: note = peptide derived from viral capsid protein) [SEQ ID NO: 1985]
ranked binding signal obtained from the microarray (01 binds strongest) (mAb 9C12): 18
group I [1]: X
group II [1]: X
group III [1]: X

TQGTQQLLFSQAGP [SEQ ID NO: 1974]
ranked binding signal obtained from the microarray (01 binds strongest) (mAb 9C12): 07
group I [1]: X
group II [1]: X
group III [1]: X

LSRTQSTGGTQGTQ [SEQ ID NO: 1973]
ranked binding signal obtained from the microarray (01 binds strongest) (mAb 9C12): 06
group I [1]: X
group II [1]: X
group III [1]: X

337 (VLGSAHQGCLPPF) [compound 337]
peptide number according to binding strength (mAb ADK8): 27

347 (QAVGRSSFYCLEY) [compound 347]
peptide number according to binding strength (mAb ADK8): 33

341 (SAHQGCLPPF) [compound 341]
peptide number according to binding strength (mAb ADK8): 39

331 (WLPGPCY) [compound 331]
peptide number according to binding strength (mAb ADK8): 15

DSESVPDPQPLGEP (REGION 1..14: note = peptide derived from viral capsid protein) [SEQ ID NO: 1978]
ranked binding signal obtained from the microarray (01 binds strongest) (mAb 9C12): 11
group I [1]: X
group II [1]: X
group III [1]: X

348 (NGSQAVGRSSFYC) [compound 348]
peptide number according to binding strength (mAb ADK8): 35

317 (LQGPIWA) [compound 317]
peptide number according to binding strength (mAb ADK8): 12

GDSESVPDPQPLGE [SEQ ID NO: 1983]
ranked binding signal obtained from the microarray (01 binds strongest) (mAb 9C12): 16
group I [1]: X
group II [1]: X
group III [1]: X

315 (DVYLQGP) [compound 315]
peptide number according to binding strength (mAb ADK8): 05

KSVNVDFTVDTNGV (REGION 1..14: note = peptide derived from viral capsid protein) [SEQ ID NO: 1987]
ranked binding signal obtained from the microarray (01 binds strongest) (mAb 9C12): 20
group I [1]: X
group II [1]: X
group III [1]: X

323 (YSTPWGYFDF) [compound 323]
peptide number according to binding strength (mAb ADK8): 11

325 (TPWGYFDFNRFHC) [compound 325]
peptide number according to binding strength (mAb ADK8): 18

1898 (LEDNLSEGIREWWD; REGION 1..14: note = peptide derived from viral capsid protein) [compound 1898]
group I [2]: X

1917 (HYFGYSTPWGYFDF; REGION 1..14: note = peptide derived from viral capsid protein) [compound 1917]
group I [2]: X

338 (LPYVLGSAHQGCL) [compound 338]
peptide number according to binding strength (mAb ADK8): 32

343 (PYVLGSAHQGCLP) [compound 343]
peptide number according to binding strength (mAb ADK8): 46

330 (NWLPGPC) [compound 330]
peptide number according to binding strength (mAb ADK8): 04

339 (YVLGSAHQGC) [compound 339]
peptide number according to binding strength (mAb ADK8): 37

1937 (DDEDKFFPMSGVMI; REGION 1..14: note = peptide derived from viral capsid protein) [compound 1937]
group I [2]: X

349 (DQYLYYL) [compound 349]
peptide number according to binding strength (mAb ADK8): 19

344 (GRSSFYC) [compound 344]
peptide number according to binding strength (mAb ADK8): 14

1904 (YHLNGRDSLVNPGP; REGION 1..14: note = peptide derived from viral capsid protein) [compound 1904]
group I [2]: X

1926 (DKAYDRQLDSGDNP; REGION 1..14: note = peptide derived from viral capsid protein) [compound 1926]
group I [2]: X

1933 (DKDKFFPMSGVMIF; REGION 1..14: note = peptide derived from viral capsid protein) [compound 1933]
group I [2]: X

1921 (PEIQYTSNYNKSVN; REGION 1..14: note = peptide derived from viral capsid protein) [compound 1921]
group I [2]: X

321 (FGYSTPWGYF) [compound 321]
peptide number according to binding strength (mAb ADK8): 09

1910 (FNIQVKEVTTNDGV; REGION 1..14: note = peptide derived from viral capsid protein) [compound 1910]
group I [2]: X

1914 (SFITQYSTGQVSVE; REGION 1..14: note = peptide derived from viral capsid protein) [compound 1914]
group I [2]: X

350 (PLIDQYLYYL) [compound 350]
peptide number according to binding strength (mAb ADK8): 29

1912 (PQILIKNTPVPADP; REGION 1..14: note = peptide derived from viral capsid protein) [compound 1912]
group I [2]: X

345 (AVGRSSFYCLEYF) [compound 345]
peptide number according to binding strength (mAb ADK8): 22

1893 (DTNGVYSEPRPIGT; REGION 1..14: note = peptide derived from viral capsid protein) [compound 1893]
group I [2]: X

1934 (LQQQNTAPQIGTVN; REGION 1..14: note = peptide derived from viral capsid protein) [compound 1934]
group I [2]: X

340 (CLPPFPA) [compound 340]
peptide number according to binding strength (mAb ADK8): 38

1900 (LIKNTPVPADPPTT; REGION 1..14: note = peptide derived from viral capsid protein) [compound 1900]
group I [2]: X

1928 (DKAYDQQLQAGDNP; REGION 1..14: note = peptide derived from viral capsid protein) [compound 1928]
group I [2]: X

1918 (APGKKRPVDQSPQE; REGION 1..14: note = peptide derived from viral capsid protein) [compound 1918]
group I [2]: X

322 (GYSTPWGYFD) [compound 322]
peptide number according to binding strength (mAb ADK8): 10

1913 (QLKAGDNPYLRYNH; REGION 1..14: note = peptide derived from viral capsid protein) [compound 1913]
group I [2]: X
